Experiment [1] relates to Leishmania donovani axenic amastigote parasites. As to the kind of experiment: Leishmania donovani axenic amastigote proliferation assay. It counts as cell-based. Conditions: axenic amastigotes in vitro, read-out: L. donovani amastigotes EC50. As to the method: Leishmania Donovani Axenic Amastigote Proliferation Assay
Leishmania donovani axenic amastigote parasites are grown at 37° C., 5% CO2 in media made of RPMI 1640, 4 mM L-glutamine, 20% heat inactivated FBS, 100 units/ml of penicillin and 100 μg/ml of streptomycin, 23 μM Folic Acid, 100 μM Adenosine, 22 mM D-glucose, 25 mM MES. The pH of media is adjusted to 5.5 at 37° C. using HCl. 20 μL of media is first dispensed into 384 well plates and 100 nL of the compounds of invention in DMSO are added to the plate wells. At the same time control compounds and DMSO are added to plates to serve as the positive and negative controls, respectively. 40 μL of parasite culture (9600 parasites) are then added to the plate wells. The plates are then placed into incubators. After 2 day incubation, 20 μL of Cell TiterGlo (Promega) is added to the plate wells. The luminescence signal of each well is measured using the Envision reader (Perkin Elmer). The percentage inhibition of 50%, EC50, is calculated for each of the compounds.

Experiment [2] deals with L. donovani HU3 strain in mouse peritoneal macrophages. As to the kind of experiment: Assay for proliferation of Leishmania parasites in mouse peritoneal macrophages. It counts as cell-based, Leishmania donovani. Conditions: Leishmania donovani, Peritoneal macrophage, read-out: L. donavani Macrophage EC50. An excerpt: Assay for Proliferation of Leishmania Parasites
The activity of a compound according to the present invention for inhibition of parasitemai can be assessed by the parasite proliferation assay. The assay measures the increase in the parasite number in the assayed plate well using a DNA intercalating dye, SYBR Green I® dye (INVITROGEN) to stain Leishmania cell nuclei. It is understood that the assays illustrate the invention without in any way limiting the scope of the invention.
L. donovani HU3 strain is propagated by infecting BALB/c mice through tail vein injection with 10^7 Leishmania parasites. Infected mice are allowed to develop infection during 9-11 weeks post-infection. During this time, the parasites accumulate in the infected mouse spleens to large numbers, and the infected mice serve as the source of parasites for the in vitro measurement of compound efficacies. To assay a compound for anti-leishmanial activity, peritoneal macrophages isolated from non-infected BALB/c mice are seeded into 384-well plates at density 2×10^4 macrophages per well in […] of medium (RPMI 1640, 10% […], 10 mM HEPES, 1 mM sodium pyruvate, 1% Pen/Strep). Subsequently, the seeded plates are placed into an incubator set to maintain 37° C. temperature and atmosphere with 5% CO2. The next day, Leishmania parasites are isolated from the spleens of mice infected for 9-11 weeks and 4×10^5 isolated parasites in […] of the above media are added to each plate well. Plates are then returned into incubators and infection is allowed to proceed for 24 hours. After the infection of macrophages is completed, […] of compounds of the invention in the above medium, which also contains 5% DMSO, are added to plate wells containing infected macrophages. At the same time control compounds (miltefosine and amphotericin B) and DMSO are added to plates to serve as the positive and negative controls, respectively. After the compound addition, the plates are returned into incubator and cells infected with parasites are cultured for 5 days. At the end of cultivation, […] of 8% paraformaldehyde is added to plate wells and incubated for 15 min at room temperature. Following the incubation, the paraformaldehyde from plate wells is aspirated, and […] of PBS containing 0.2% Triton X-100 is added to wells. After 15 min incubation, the solution is aspirated from wells again, and replaced with SybrGreen Dye solution in PBS (1:125,000 dilution). Infected cells are imaged with Evotec Opera high-content microscope, and the number of parasites in well is determined by counting parasite nuclei visualized by staining with SybrGreen dye. The percentage inhibition of 50%, EC50, is calculated for each compound.
The inhibitory efficacy of the compounds of the invention in delaying the proliferation of L. donovani in mouse peritoneal macrophages is provided in Table I, infra.

Regarding `CN(C)c1ccc(-c2cnc3nc(-c4cc(NC(=O)c5ccco5)ccc4Cl)[nH]c3c2)cn1` [Compound 65], the EC50 in experiment [1] was found to be 0.197 µM; in experiment [2], 1.58 µM.
On the same counts, the results for `NS(=O)(=O)c1ccc(-c2cnc3nc(-c4cc(NC(=O)c5ccco5)ccc4Cl)[nH]c3c2)cc1` [Compound 66] are 4.6 µM and > 39.1 µM.
Turning to `CN(C)c1ccc(-c2cnc3nc(-c4cc(NC(=O)c5ccco5)ccc4Cl)[nH]c3c2)cc1` [Compound 67], the EC50 is 2.12 µM in experiment [1] and 2.5 µM in experiment [2].
As to `O=C(Nc1ccc(Cl)c(-c2nc3ncc(-c4ccc(N5CCCC5)cc4)cc3[nH]2)c1)c1ccco1` [Compound 68], the results for the EC50 in experiment [1] and in experiment [2] were 2.85 µM and 4.9 µM, respectively.
In the same order, the values of `O=C(Nc1ccc(Cl)c(-c2nc3ncc(-c4ccc(OCCn5ccnc5)cc4)cc3[nH]2)c1)c1ccco1` [Compound 71] are 4 µM and 1.86 µM.
In the same order, the values of `Cc1c[nH]nc1-c1cnc2nc(-c3cc(NC(=O)c4ccco4)ccc3Cl)[nH]c2c1` [Compound 73] are 0.82 µM and 8.2 µM.
On the same counts, the results for `CC(C)Cc1cnc2nc(-c3cc(NC(=O)c4ccco4)ccc3Cl)[nH]c2c1` [Compound 76] are > 25 µM and > 50 µM.
Take `CC(C)c1cnc2nc(-c3cc(NC(=O)c4ccco4)ccc3Cl)[nH]c2c1` [Compound 77]: the EC50 in experiment [1] turned out to be 6.7 µM; in experiment [2], 35 µM.
On the same counts, the results for `Cc1cnc2nc(-c3cc(NC(=O)Cc4cc(C)no4)ccc3Cl)[nH]c2c1` [Compound 88] are > 25 µM and > 50 µM.
On to `Cc1cnc2nc(-c3cc(NC(=O)c4ccc(F)o4)ccc3Cl)[nH]c2c1` [Compound 90], for which the values for the EC50 in experiment [1] and in experiment [2] were 1.88 µM and 8 µM, respectively.
In the same order, the values of `Cc1cnc2nc(-c3cc(NC(=O)c4ccns4)ccc3Cl)[nH]c2c1` [Compound 91] are 3.2 µM and 5.6 µM.
As for `Cc1cnc2nc(-c3cc(NC(=O)c4ccnnc4)ccc3Cl)[nH]c2c1` [Compound 92], the results for the EC50 in experiment [1] and in experiment [2] were > 20 µM and > 50 µM, respectively.
Regarding `CCOc1cc(C(=O)Nc2ccc(Cl)c(-c3nc4ncc(C)cc4[nH]3)c2)ccn1` [Compound 93], the values for the EC50 in experiment [1] and in experiment [2] were > 25 µM and > 35.5 µM, respectively.
On the same counts, the results for `Cc1cnc2nc(-c3cc(NC(=O)c4ccc(CN(C)C)o4)ccc3Cl)[nH]c2c1` [Compound 94] are > 25 µM and 4.9 µM.
On the same counts, the results for `Cc1cnc2nc(-c3cc(NC(=O)c4cncc(C#N)c4)ccc3Cl)[nH]c2c1` [Compound 101] are 13.5 µM and > 50 µM.
On the same counts, the results for `Cc1cncc(C(=O)Nc2ccc(Cl)c(-c3nc4ncc(C)cc4[nH]3)c2)c1` [Compound 102] are 16.1 µM and 11.7 µM.
In the case of `Cc1cnc2nc(-c3cc(NC(=O)C4CCO4)ccc3Cl)[nH]c2c1` (centres unmarked) [Compound 103], the EC50 in experiment [1] is > 25 µM; in experiment [2], > 50 µM.
Consider `Cc1cnc2nc(-c3cc(NC(=O)c4ncco4)ccc3Cl)[nH]c2c1` [Compound 104], for which the EC50 is > 25 µM in experiment [1] and > 50 µM in experiment [2].
On the same counts, the results for `Cc1cnc2nc(-c3cc(NC(=O)c4c(C)noc4C)ccc3Cl)[nH]c2c1` [Compound 105] are > 25 µM and > 50 µM.
Turning to `Cc1cnc2nc(-c3cc(NC(=O)c4cncc(Cl)n4)ccc3Cl)[nH]c2c1` [Compound 127], the concentration for a half-maximal effect (EC50) in experiment [1] was 1.2 µM; in experiment [2] it was 4.8 µM.
In the same order, the values of `COc1cc(C(=O)Nc2ccc(Cl)c(-c3nc4ncc(C)cc4[nH]3)c2)ccn1` [Compound 129] are > 25 µM and 27.4 µM.
On the same counts, the results for `Cc1cnc2nc(-c3cc(NC(=O)c4occc4C)ccc3Cl)[nH]c2c1` [Compound 130] are 2.01 µM and 15.7 µM.
For `Cc1cnc2nc(-c3cc(NC(=O)CCCN4CCOCC4)ccc3Cl)[nH]c2c1` [Compound 132], the EC50 was > 25 µM in experiment [1] and > 50 µM in experiment [2].
In the same order, the values of `Cc1cnc2nc(-c3cc(NC(=O)c4ccc(S(C)(=O)=O)nc4)ccc3Cl)[nH]c2c1` [Compound 136] are > 25 µM and > 50 µM.
On the same counts, the results for `CSc1nccc(C(=O)Nc2ccc(Cl)c(-c3nc4ncc(C)cc4[nH]3)c2)n1` [Compound 137] are > 25 µM and 15.9 µM.
Regarding `Cc1cnc2nc(-c3cc(NC(=O)c4ccc(C(F)(F)F)cc4)ccc3Cl)[nH]c2c1` [Compound 153], the concentration for a half-maximal effect (EC50) in experiment [1] is > 25 µM; in experiment [2], 14.9 µM.
As for `Cc1cnc2nc(-c3cc(NC(=O)c4ccnc([S+](C)[O-])n4)ccc3Cl)[nH]c2c1` (centres unmarked) [Compound 154], the EC50 in experiment [1] is > 24.1 µM; in experiment [2] it was > 50 µM.
As for `Cc1cnc2nc(-c3cc(NC(=O)c4nc(C)oc4C(F)(F)F)ccc3Cl)[nH]c2c1` [Compound 176], the EC50 in experiment [1] was > 25 µM; in experiment [2], > 50 µM.
In the same order, the values of `Cc1cnc2nc(-c3cc(NC(=O)C(O)c4ccc(C(F)(F)F)cc4)ccc3Cl)[nH]c2c1` (centres unmarked) [Compound 182] are > 25 µM and > 50 µM.
On the same counts, the results for `Cc1cnc2nc(-c3cc(NC(=O)CO)ccc3Cl)[nH]c2c1` [Compound 183] are > 25 µM and > 50 µM.
On the same counts, the results for `Cc1cnc2nc(-c3cc(NC(=O)c4ccnc(C)c4)ccc3Cl)[nH]c2c1` [Compound 188] are 2.26 µM and 11.6 µM.
As for `Cc1cnc2nc(-c3cc(NC(=O)c4ccnc(C)c4C)ccc3Cl)[nH]c2c1` [Compound 189], the EC50 in experiment [1] was > 25 µM; in experiment [2], > 28.9 µM.
For the molecule `Cc1cnc2nc(-c3cc(NC(=O)c4ccc(OC(F)(F)F)cc4)ccc3Cl)[nH]c2c1` [Compound 210], the EC50 is > 22 µM in experiment [1] and > 37.7 µM in experiment [2].
In the same order, the values of `COc1ccc(C(=O)Nc2ccc(Cl)c(-c3nc4ncc(C)cc4[nH]3)c2)cc1` [Compound 211] are > 22.8 µM and > 27.9 µM.
On the same counts, the results for `[2H]C([2H])([2H])C([2H])([2H])OC(=O)Nc1ccc(Cl)c(-c2nc3ncc(C)cc3[nH]2)c1` [Compound 215] are 13.3 µM and 18.1 µM.
Take `Cc1cnc2nc(-c3cc(NC(=O)N4CC[C@@H](F)C4)ccc3Cl)[nH]c2c1` [Compound 234]: the results for the EC50 in experiment [1] and in experiment [2] were 2.03 µM and 9.7 µM, respectively.
On the same counts, the results for `Cc1cnc2nc(-c3cc(NC(=O)N4CC[C@H](F)C4)ccc3Cl)[nH]c2c1` [Compound 235] are 3.5 µM and 8.8 µM.
Take `Cc1cnc2nc(-c3cc(NC(=O)Nc4ccc(C(F)(F)F)cc4)ccc3Cl)[nH]c2c1` [Compound 248]: the EC50 was > 25 µM in experiment [1] and 23.1 µM in experiment [2].
On the same counts, the results for `Cc1cnc2nc(-c3cc(NC(=O)CCN)ccc3F)[nH]c2c1` [Compound 268] are > 25 µM and > 50 µM.
On the same counts, the results for `Cc1cnc2nc(-c3cc(NC(=O)c4ccc(OCCN(C)C)cc4)ccc3F)[nH]c2c1` [Compound 269] are > 25 µM and > 50 µM.
On to `Cc1cnc2nc(-c3cc(NC(=O)c4ccno4)ccc3F)[nH]c2c1` [Compound 270], for which the EC50 was 20 µM in experiment [1] and > 50 µM in experiment [2].
On the same counts, the results for `Cc1cnc2nc(-c3cc(NC(=O)[C@H]4C[C@@H](O)CN4)ccc3F)[nH]c2c1` [Compound 271] are > 25 µM and > 50 µM.
On the same counts, the results for `CC(=O)Nc1ccc(F)c(-c2nc3ncc(C)cc3[nH]2)c1` [Compound 272] are > 25 µM and > 50 µM.

In general, EC50 refers to the concentration giving half of the maximal effect.

These data come from patent US9233961B2, “Compounds and compositions for the treatment of parasitic diseases” (Novartis AG, priority 2013, dated 2016).
